For orientation: melting point means the temperature of the solid-liquid transition.

Structures can show the parent of a compound that is named as a salt.

With `CCCCOC(=O)NCCc1nc(-c2ccc(-c3ccc(N=C(N)c4cccs4)cc3)cc2)c[nH]1` (as salt: hydrochloride) [Example 3, butyl 2-[4-(4′-{[(1Z)-amino(thien-2-yl)methylene]amino}-1,1′-biphenyl-4-yl-1H-imidazol-2-yl]ethylcarbamate hydrochloride], the melting point was 97 to 98 °C.
Consider `NC(=Nc1cccc(-c2c[nH]c(CNC3CCCCC3)n2)c1)c1cccs1` (as salt: hydrochloride) [Example 6, N′-(3{2-[cyclohexylamino)methyl]-1H-imidazol-4-yl}phenyl)thiophene-2-carboximidamide hydrochloride], for which the melting point was greater than 225 °C.
Next, `N=C(Nc1cccc(-c2c[nH]c(CCC3CCCCC3)n2)c1)c1cccs1` (as salt: hydrochloride) [Example 13, N-{3[2-(2-cyclohexlethyl)-1H-imidazol-4-yl]phenyl}thiophene-2-carboximidamide hydrochloride]: greater than 191 °C; `NC(=N[N+](=O)[O-])Nc1ccc(-c2c[nH]c(CCC3CCCCC3)n2)cc1` (as salt: hydrochloride) [Example 19, N{4-[2-(2-cyclohexylethyl)-1H-imidazol-4-yl]phenyl}N″-nitroguanidine hydrochloride]: 185 to 186 °C.
Next, `CCCCN(CCc1nc(-c2cccc(/N=C(/N)c3cccs3)c2)c[nH]1)C(=O)O.Cl` [Example 2, butyl-2[4(3-{[(1E)-amino(thien-2yl)methylene]-amino}phenyl)-1H-imidazol-2-yl]ethylcarbamate hydrochloride]: 210 to 212 °C.
`Cl.NC(=Nc1ccc(-c2c[nH]c(CCNC3CCCCC3)n2)cc1)c1cccs1` [Example 5, N′-(4-{2-[2-(cyclohexylamino)ethyl]-1H-imidazol-4-yl}phenyl)thiophene-2-carboximidamide hydrochloride] displayed a melting point of 185 to 186 °C.
Consider `CN(Cc1nc(-c2ccc(N=C(N)c3cccs3)cc2)c[nH]1)C1CCCCC1.Cl` [Example 7, N′-[4-(2-{[cyclohexyl(methyl)amino]methyl}-1H-imidazol-4-yl)phenyl]thiophene-2-carboximidamide hydrochloride], for which the melting point was in the range of 240 to 241 °C.
`Cl.NC(=Nc1ccc(-c2c[nH]c(CN(Cc3ccccc3)Cc3ccccc3)n2)cc1)c1cccs1` [Example 8, N′-(4{2-[(dibenzylamino)methyl]-1H-imidazol-4-yl}phenyl)thiophene-2-carboximidamide hydrochloride] yielded a melting point of 150 to 151 °C.
Next, `Cl.NC(=Nc1ccc(-c2c[nH]c(CNCc3ccccc3)n2)cc1)c1cccs1` [Example 9, N′-(4-{2-[(benzylamino)methyl]-1H-imidazol-4-yl}phenyl)thiophene-2-carboximidamide hydrochloride]: 228 to 229 °C; `Cl.NC(=Nc1cccc(-c2c[nH]c(C/N=C(/N)c3cccs3)n2)c1)c1cccs1` [Example 11, N′-{3[2-({[(1E)-amino(thien-2-yl)methylene]-amino}methyl)-1H-imidazol-4-yl]phenyl}thiophene-2-carboximidamide hydrochloride]: greater than 300 °C; `Cl.NC(=Nc1ccc(-c2c[nH]c(C/N=C(/N)c3cccs3)n2)cc1)c1cccs1` [Example 12, N′-{4-[2-({[(1E)-amino(thien-2-yl)methylene]-amino}methyl)-1H-imidazol-4-yl]phenyl}thiophene-2-carboximidamide hydrochloride]: 227 to 228 °C.
`CCCCCC(CCCCC)c1nc(-c2cccc(N=C(N)c3cccs3)c2)c[nH]1.Cl` [Example 14, N′-{3-[2(1-pentylhexyl)-1H-imidazol-4-yl]phenyl}thiophene-2-carboximidamide hydrochloride] registered a melting point of 163.3 °C.
For `Cl.NC(=Nc1ccc(-c2c[nH]c(CCC3CCCCC3)n2)cc1)c1cccs1` [Example 15, N′-{4-[2-(2-cyclohexylethyl)-1H-imidazol-4-yl]phenyl}thiophene-2-carboximidamide hydrochloride], the melting point was 196.2 °C.
Next, `Cl.NC(=Nc1cccc(-c2c[nH]c(CCCC3CCCCC3)n2)c1)c1cccs1` [Example 17, N′-{3-[2-(3-cyclohexylpropyl)-1H-imidazol-4-yl]phenyl}thiophene-2-carboximidamide hydrochloride]: 180 to 181 °C; `Cl.NC(=Nc1ccc(-c2c[nH]c(CNC3CCCCCC3)n2)cc1)c1cccs1` [Example 20, N′-(4-{2-[(cycloheptylamino)methyl]-1H-imidazol-4-yl}phenyl)thiophene-2-carboximidamide hydrochloride]: 264 to 265 °C; `CNCc1nc(-c2ccc(N=C(N)c3cccs3)cc2)c[nH]1.Cl` [Example 21, N′-(4-{2-[(methylamino)methyl]-1H-imidazol-4-yl}phenyl)thiophene-2-carboximidamide hydrochloride]: greater than 250 °C.
The molecule `Cl.NC(=Nc1ccc(-c2c[nH]c(CNC3CCC3)n2)cc1)c1cccs1` [Example 22, N′-(4-{2-[(cyclobutylamino)methyl]-1H-imidazol-4-yl}phenyl)thiophene-2-carboximidamide hydrochloride] came in with a melting point of 263 to 264 °C.
Next, `Cl.NC(=Nc1ccc(-c2c[nH]c(CNCC(c3ccccc3)c3ccccc3)n2)cc1)c1cccs1` [Example 23, N′[4-(2-{[(2,2-diphenylethyl)amino]methyl}-1H-imidazol-4-yl)phenyl]thiophene-2-carboximidamide hydrochloride]: greater than 250 °C.
`Cl.NC(=Nc1cccc(-c2c[nH]c(CC/N=C(/N)c3cccs3)n2)c1)c1cccs1` [Example 24, N′-{3-[2-(2{[(1E)-amino(thien-2-yl)methylene]amino}ethyl)-1H-imidazol-4-yl]phenyl}thiophene-2-carboximidamide hydrochloride] showed a melting point greater than 245 °C.
Regarding `CC(C)Cc1ccc(Cc2nc(-c3cccc(N=C(N)c4cccs4)c3)c[nH]2)cc1.Cl` [Example 27, N′-{3-[2-(4-isobutylbenzyl)-1H-imidazol-4-yl]phenyl}thiophene-2-carboximidamide hydrochloride], the melting point was 214 to 216 °C.
